Source: US20220008402A1, “INCREASED E-CADHERIN EXPRESSION OR ACTIVITY FOR THE TREATMENT OF INFLAMMATORY DISEASES” (The Cleveland Clinic Foundation, priority 2020, published 2022)
Entries after “also recorded” stand apart in the source; their conditions may differ.

Key:
E-cadherin = details: literature reports; cited from earlier work
T84 cell monolayers [1] = assay: Wound healing assay; format: cell-based, human; details: 10 μM pretreatment 24 h, migration 24-48 hours
Description: FIG. 8: E-cadherin-enhancing drug promote collective migration of intestinal epithelial cells. Confluent T84 cell monolayers were pretreated with either vehicle, ECU (10 μM) or ML327 (10 μM) for 24 hours. Afterwards, cell monolayers were wounded and allowed to migrate into wound area in the presence of the drugs. Cell monolayers were photographed and wound closure was calculated at the indicated times. Data is presented as mean ±SE (n=3); **P<0.05, ***P<0.01.
Confluent epithelial cell monolayers were mechanically wounded by making a thin scratch wound with a 200 μl pipette tip. The bottom of the well was marked to define the position of the wound and the monolayers were supplied with fresh cell culture medium. The images of a cell-free area at the marked region were acquired at the indicated times after wounding using an inverted bright field microscope equipped with a camera. The percentage of wound closure was calculated using an Image J software (NIH, Bethesda, Md.).
Finally, the effects of E-cadherin-enhancing drugs on epithelial restitution (wound healing) were examined. This is an important question given the fact that epithelial wounds are frequently formed in inflamed intestinal mucosa of IBD patients and wound healing is necessary to restore the integrity of the gut barrier and to achieve remission of chronic inflammatory diseases. […]

T84 cell monolayers [2] = assay: Cytokine (TNFα/IFNγ)-induced disruption of the epithelial barrier (TEER, FITC-dextran flux); format: cell-based, human; details: 10 μM pretreatment 24 h, then TNFα 10 ng/ml + IFNγ 50 ng/ml, 48 h
Description: (§1) Confluent T84 cell monolayers were pretreated with either vehicle, or ECU (10 μM) for 24 h. Afterwards, cells were exposed to a combination of TNFα (10 ng/ml) and IFNγ (50 ng/ml) with and without ECU. (A) TEER was measured at the indicated times. (B) FITC-dextran flux was examined after 48 h incubation with cytokines. Data is presented as mean ±SE (n=3); ***P<0.001.
as §1, with “ML327” for “ECU”, “hours.” for “h.”, “ML327.” for “ECU.”, “(n=3); **P<0.05,” for “(n=3);”
(§2) Transepithelial electrical resistance (TEER) of cultured T84, HT-29 and SK-C015 intestinal epithelial cell monolayers was measured using an EVOMX voltohmmeter (World Precision Instruments, Sarasota, Fla.). Cells were plated on collagen-coated transwell filters (pore size 3 μm, Thermo-Fisher). The resistance of cell-free collagen-coated filters was subtracted from each experimental point. An in vitro dextran flux assay was performed by a following commonly-used protocol. Intestinal epithelial cell monolayers growing on transwell filters were apically exposed to 1 mg/ml of FITC-labeled dextran (4,000 Da) in HEPES-buffered Hanks balanced salt solution (HBSS). After 120 min of incubation, HBSS samples were collected from the lower chamber, and FITC fluorescence intensity was measured using a Victor^3 V plate reader (Perkin Elmer, Waltham, Mass.) with excitation and emission wavelengths 485 and 544 nm, respectively. After subtracting the fluorescence of dextran-free HBSS the amount of FITC dextran translocated across the epithelial cell monolayer was calculated based on a calibration curve using Prism 5 software (GraphPad, La Jolla, Calif.).
A combination of two cytokines were selected: tumor necrosis factor alpha (TNFα, 10 ng/ml) and interferon-gamma (IFNγ, 50 ng/ml), which are known to compromise barrier integrity and trigger apical junction disassembly in cultured epithelial cell monolayers and intestinal mucosa in mice. Indeed, 48 hour incubation of well-differentiated T84 cell monolayers with TNFα and IFNγ caused a dramatic decrease in TEER (FIGS. 3A, 4A) and increase in transepithelial dextran flux (FIGS. 3B, 4B), which indicates the increase in barrier permeability. […] Next, it was examined if ECU protects epithelial adherens junctions (AJ) and tight junctions (TJ) from cytokine-induced disassembly. Immunofluorescence labeling of a specific AJ marker, E-cadherin, and a TJ marker, ZO-1, was used to visualize structure of different junctional complexes. […]

T84 cell monolayers [3] = assay: Immunoblotting of signaling molecules after multiple wounding; format: cell-based, human; details: 10 μM pretreatment 24 h; lysates 12 and 24 h post-wounding
Description: Confluent T84 cell monolayers were pretreated with either vehicle, ECU (10 μM), or ML327 (10 μM), for 24 h, and were subjected to multiple wounding. Total cell lysates were collected at 12 and 24 h post-wounding, and the expression of different signaling molecules was determined by immunoblotting. Representative immunoblots (A) and densitometric quantification of protein band intensities from three independent experiments (B) are shown. Data are presented as a mean ±SE (n=3); *p<0.05; **p<0.01.
To prepare total cell lysates, epithelial cell monolayers were scraped and homogenized using a Dounce homogenizer in RIPA buffer (20 mM Tris, 50 mM NaCl, 2 mM EDTA, 2 mM EGTA, 1% sodium deoxycholate, 1% Triton X-100 (TX-100), and 0.1% SDS, pH 7.4) containing protease inhibitor cocktail and phosphatase inhibitor cocktails 2 and 3 (Sigma-Aldrich). The obtained total cell lysates were cleared by centrifugation (20 min at 14,000×g), diluted with 2×SDS sample loading buffer and boiled. SDS-polyacrylamide gel electrophoresis was conducted using a standard protocol with equal amounts of total protein (10 or 20 μg) loaded per each lane. The separated proteins were transferred to nitrocellulose membranes and the membranes were blocked with 5% non-fat milk. […]

T84 cell monolayers [4] = assay: Epithelial barrier permeability in vitro (TEER, FITC-dextran flux), steady state; format: cell-based, human; details: 10 μM
Description: (§3) FIG. 1: E-cadherin-enhancing drugs decrease ionic permeability of model colonic epithelial cell monolayers. Confluent T84 (A), HT-29cF8 (B) and SK-0015 (C) cell monolayers were treated for indicated times with either vehicle, E-cadherin upregulator (ECU, 10 μM), or ML327 (10 μM). Transepithelial electrical resistance (TEER) of the cell monolayers was measured before and during the drug treatment. Data is presented as mean ±SE (n=3); *P<0.05.
(§4) FIG. 2: E-cadherin-enhancing drugs decrease colonic epithelial permeability to large molecules. Confluent T84 (A), HT-29cF8 (B) and SK-C015 (C) cell monolayers were treated with either vehicle, ECU, or ML327, as described in the FIG. 1 legend. Trans-monolayer flux of FITC-dextran was determined at the end of the drug treatment. Data is presented as mean ±SE (n=3); **P<0.05 ***P<0.01.
as §2
(§5) One set of experiments examined the effects of E-cadherin upregulator (ECU) and ML327 on the barrier properties of normal model intestinal epithelial cell monolayers. Three different human colonic epithelial cell lines, namely, T84, SK-0015 and HT-29 cF8 cells, were used. Cells were plated on collagen-coated transwell filters and allowed to reach confluency and differentiate for 5-7 days after plating. Thereafter, cell monolayers were exposed to either ECU (10 μM), ML327 (10 μM) or vehicle (DMSO). Transepithelial electrical resistance (TEER) was measured before and at different times after addition of E-cadherin-enhancing drugs. A transepithelial flux of FITC-dextran was examined at the end of the drug exposure to evaluate epithelial permeability to large uncharged molecules.

SK-0015 cell monolayers = assay: as above; format: cell-based, human; details: 10 μM
Description: as §3, §4, §2, §5

[5] = system: HT-29 cF8 cell monolayers; assay: as above; format: cell-based, human; details: 10 μM
Description: as §3, §4, §2, §5

[6] = rapid (within 24 h) and sustained (up to 96 h), vs vehicle (DMSO)
[7] = at the end of the drug exposure

CCCCCCCCCCCCC/C=C/[C@@H](O)[C@@H](N)COP(=O)(O)O [Sphingosine-1-Phosphate]
E-cadherin expression (E-cadherin): stimulate E-cadherin expression

O=C(NCCCNC(=O)c1cccnc1O)c1cc(-c2ccccc2)on1 [ML327, N-(3-(2-hydroxynicotinamido)propyl)-5-phenylisoxazole-3-carboxamide]
Cell migration during wound healing (wound closure) (T84 cell monolayers [1]): significantly increased migration
Cytokine-induced decrease in TEER (T84 cell monolayers [2]): prevents cytokine-induced disruption; also recorded: markedly attenuated
Cytokine-induced increase in transepithelial FITC-dextran flux (T84 cell monolayers [2]): prevents cytokine-induced disruption; also recorded: markedly attenuated
Expression of signaling molecules (pro-migratory signaling) (T84 cell monolayers [3]): activation of pro-migratory signaling events
Transepithelial flux of FITC-dextran (T84 cell monolayers [4]; at the end of the drug exposure, T84): significantly inhibited FITC-dextran flux
Transepithelial electrical resistance (TEER) (T84 cell monolayers [4]; [6]): increase in TEER
Transepithelial flux of FITC-dextran (SK-0015 cell monolayers; [7]): significantly inhibited FITC-dextran flux
Transepithelial electrical resistance (TEER) (SK-0015 cell monolayers; [6]): increase in TEER
Transepithelial flux of FITC-dextran [5, 7]: significantly inhibited FITC-dextran flux
Transepithelial electrical resistance (TEER) ([5]; up to 96 h, vs vehicle (DMSO)): transiently increased TEER for the first 48 hours with its subsequent decrease at later times

CN(Cc1cnc2nc(N)nc(N)c2n1)c1ccc(C(=O)N[C@@H](CCC(=O)O)C(=O)O)cc1 [methotrexate]
E-cadherin expression (E-cadherin): stimulated E-cadherin expression

Nc1ncn([C@@H]2O[C@H](CO)[C@@H](O)[C@H]2O)c(=O)n1 [5-Axacytidine]
E-cadherin expression (E-cadherin): stimulate E-cadherin expression

CN(C(=S)NN=C(c1ccccn1)c1ccccn1)C1CCCCC1 [DpC, di(2-pyridyl)ketone 4-cyclohexyl-4-methyl-3-thiosemicarbazone]
E-cadherin expression (E-cadherin): stimulate E-cadherin expression

CN(C)C(=S)NN=C(c1ccccn1)c1ccccn1 [Dp44mT, Di(2-pyridyl)ketone 4,4-dimethyl-3-thiosemicarbazone]
E-cadherin expression (E-cadherin): stimulate E-cadherin expression
